Data taken from US9718828B2 (MERCK SHARP & DOHME CORP., priority 2011, dated 2017).
Counter-ions that a name gives are not always drawn.

Biological target: hBTK (full-length BTK, 6HIS-tag cleaved) (Homo sapiens (Human), UniProt Q06187)
Assay: BTK enzymatic activity, LANCE TR-FRET assay (Assay Method C)
Format: biochemical
Conditions: LANCE TR-FRET, 50 pM hBTK, 25 μM ATP; class 100-1000 is given as ≧100 nM-<1 μM; read-out: IC50 Btk activity values - Assay Method C

Chain of hBTK (full-length BTK, 6HIS-tag cleaved) (Q06187 whole entry): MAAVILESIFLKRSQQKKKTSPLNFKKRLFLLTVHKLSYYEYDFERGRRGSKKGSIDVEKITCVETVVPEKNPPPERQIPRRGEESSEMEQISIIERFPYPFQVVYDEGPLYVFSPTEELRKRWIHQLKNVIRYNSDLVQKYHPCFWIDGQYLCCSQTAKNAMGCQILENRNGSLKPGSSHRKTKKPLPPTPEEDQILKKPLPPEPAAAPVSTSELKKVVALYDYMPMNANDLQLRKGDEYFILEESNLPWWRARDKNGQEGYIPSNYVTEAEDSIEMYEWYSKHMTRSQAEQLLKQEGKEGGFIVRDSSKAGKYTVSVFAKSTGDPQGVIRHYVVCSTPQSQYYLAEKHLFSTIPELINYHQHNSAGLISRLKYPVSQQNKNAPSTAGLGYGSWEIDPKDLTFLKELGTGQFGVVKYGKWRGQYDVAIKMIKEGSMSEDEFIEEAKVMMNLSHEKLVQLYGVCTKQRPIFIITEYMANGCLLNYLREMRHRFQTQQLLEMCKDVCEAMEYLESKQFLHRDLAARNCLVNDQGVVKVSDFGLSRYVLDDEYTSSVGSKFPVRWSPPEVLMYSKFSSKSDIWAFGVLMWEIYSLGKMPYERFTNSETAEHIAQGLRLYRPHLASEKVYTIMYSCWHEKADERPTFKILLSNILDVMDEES

SMILES | IC50 [nM]
CC1(C(=O)N2CCC[C@@H](c3nc(-c4ccc(C(=O)Nc5cc(C(F)(F)F)ccn5)cc4)c4c(N)ncc(C(F)(F)F)n34)C2)COC1 [Example 470, 4-[8-amino-3-{(3R)-1-[(3-methyloxetan-3-yl)carbonyl]piperidin-3-yl}-5-(trifluoromethyl)imidazo[1,5-a]pyrazin-1-yl]-N-[4-(trifluoromethyl)pyridin-2-yl]benzamide] | < 10
COCCN1CCO[C@@H](c2nc(-c3ccc(C(=O)Nc4cc(C(F)(F)F)ccn4)cc3)c3c(N)ncc(C)n23)C1 [Example 539, 4-{8-amino-3-[(2R)-4-(2-methoxyethyl)morpholin-2-yl]-5-methylimidazo[1,5-a]pyrazin-1-yl}-N-[4-(trifluoromethyl)pyridin-2-yl]benzamide, TFA salt] | < 10
COC(=O)N1C[C@@H](c2nc(-c3ccc(C(=O)Nc4cc(C(F)(F)F)ccn4)cc3)c3c(N)nccn23)CC[C@@H]1C(F)(F)F [Example 430, methyl (2R,5S)-5-[8-amino-1-(4-{[4-(trifluoromethyl)pyridin-2-yl]carbamoyl}phenyl)imidazo[1,5-a]pyrazin-3-yl]-2-(trifluoromethyl)piperidine-1-carboxylate] | < 10
C[C@H]1CC[C@@H](c2nc(-c3ccc(C(=O)Nc4cc(C(F)F)ccn4)cc3F)c3c(N)nccn23)CN1C(=O)C1CC1 [Example 436, 4-{8-amino-3-[(3R,6S)-1-(cyclopropylcarbonyl)-6-methylpiperidin-3-yl]imidazo[1,5-a]pyrazin-1-yl}-N-[4-(difluoromethyl)pyridin-2-yl]-3-fluorobenzamide] | < 10
COCC(=O)N1CCC[C@@H](c2nc(-c3ccc(C(=O)Nc4cc(C(F)(F)F)ccn4)cc3F)c3c(N)nccn23)C1 [Example 575, 4-{8-amino-3-[(3R)-1-(methoxyacetyl)piperidin-3-yl]imidazo[1,5-a]pyrazin-1-yl}-3-fluoro-N-[4-(trifluoromethyl)pyridin-2-yl]benzamide, TFA salt] | < 10
COCC(=O)N1CCC[C@@H](c2nc(-c3ccc(C(=O)Nc4cc(C(F)(F)F)ccn4)cc3)c3c(N)ncc(Cl)n23)C1 [Example 442, 4-{8-amino-5-chloro-3-[(3R)-1-(methoxyacetyl)piperidin-3-yl]imidazo[1,5-a]pyrazin-1-yl}-N-[4-(trifluoromethyl)pyridin-2-yl]benzamide] | < 10
N#CCCN1CCO[C@@H](c2nc(-c3ccc(C(=O)Nc4cc(C(F)(F)F)ccn4)cc3)c3c(N)nccn23)C1 [Example 532, 4-{8-amino-3-[(2R)-4-(2-cyanoethyl)morpholin-2-yl]imidazo[1,5-a]pyrazin-1-yl}-N-[4-(trifluoromethyl)pyridin-2-yl]benzamide] | < 10
Nc1nccn2c([C@H]3CC[C@H](C(F)(F)F)N(CCO)C3)nc(-c3ccc(C(=O)Nc4cc(C(F)(F)F)ccn4)cc3)c12 [Example 437, 4-{8-amino-3-[(3S,6R)-1-(2-hydroxyethyl)-6-(trifluoromethyl)piperidin-3-yl]imidazo[1,5-a]pyrazin-1-yl}-N-[4-(trifluoromethyl)pyridin-2-yl]benzamide] | < 10
COCc1cnc(N)c2c(-c3ccc(C(=O)Nc4cc(C(F)(F)F)ccn4)cc3F)nc([C@@H]3CCCN(C(=O)C4(C)COC4)C3)n12 [Example 451, 4-[8-amino-5-(methoxymethyl)-3-{(3R)-1-[(3-methyloxetan-3-yl)carbonyl]piperidin-3-yl}imidazo[1,5-a]pyrazin-1-yl]-3-fluoro-N-[4-(trifluoromethyl)pyridin-2-yl]benzamide] | < 10
COCc1cnc(N)c2c(-c3ccc(C(=O)Nc4cc(C(F)(F)F)ccn4)cc3)nc([C@@H]3CC[C@H](C)N(C(=O)C4(C)COC4)C3)n12 [Example 450, 4-[8-amino-5-(methoxymethyl)-3-{(3R,6S)-6-methyl-1-[(3-methyloxetan-3-yl)carbonyl]piperidin-3-yl}imidazo[1,5-a]pyrazin-1-yl]-N-[4-(trifluoromethyl)pyridin-2-yl]benzamide] | < 10
CCC(=O)N1C[C@@H](c2nc(-c3ccc(C(=O)Nc4cc(C(F)(F)F)ccn4)cc3)c3c(N)nccn23)CC[C@@H]1C(F)(F)F [Example 415, 4-{8-amino-3-[(3S,6R)-1-propanoyl-6-(trifluoromethyl)piperidin-3-yl]imidazo[1,5-a]pyrazin-1-yl}-N-[4-(trifluoromethyl)pyridin-2-yl]benzamide] | < 10
Nc1nccn2c([C@@H]3CCCN(C(=O)CC(F)(F)F)C3)nc(-c3ccc(C(=O)Nc4cc(C(F)(F)F)ccn4)cc3)c12 [Example 332, 4-{8-amino-3-[(3R)-1-(3,3,3-trifluoropropanoyl)piperidin-3-yl]imidazo[1,5-a]pyrazin-1-yl}-N-[4-(trifluoromethyl)pyridin-2-yl]benzamide] | < 10
CCOCCN1CCO[C@@H](c2nc(-c3ccc(C(=O)Nc4cc(C(F)(F)F)ccn4)cc3)c3c(N)ncc(C)n23)C1 [Example 541, 4-{8-amino-3-[(2R)-4-(2-ethoxyethyl)morpholin-2-yl]-5-methylimidazo[1,5-a]pyrazin-1-yl}-N-[4-(trifluoromethyl)pyridin-2-yl]benzamide, TFA salt] | < 10
CC1(C(=O)N2CCC[C@@H](c3nc(-c4ccc(C(=O)Nc5ccc(Cl)cn5)cc4)c4c(N)nccn34)C2)COC1 [Example 358, 4-(8-amino-3-{(3R)-1-[(3-methyloxetan-3-yl)carbonyl]piperidin-3-yl}imidazo[1,5-a]pyrazin-1-yl)-N-(5-chloropyridin-2-yl)benzamide] | < 10
Cc1cnc(N)c2c(-c3ccc(C(=O)Nc4cc(C(F)(F)F)ccn4)cc3)nc([C@H]3CN(C(=O)[C@@H](C)O)CCO3)n12 [Example 544, 4-(8-amino-3-{(2R)-4-[(2R)-2-hydroxypropanoyl]morpholin-2-yl}-5-methylimidazo[1,5-a]pyrazin-1-yl)-N-[4-(trifluoromethyl)pyridin-2-yl]benzamide] | < 10
C[C@@H](O)C(=O)N1CCO[C@@H](c2nc(-c3ccc(C(=O)Nc4cc(C(F)(F)F)ccn4)cc3)c3c(N)nccn23)C1 [Example 520, 4-(8-amino-3-{(2R)-4-[(2R)-2-hydroxypropanoyl]morpholin-2-yl}imidazo[1,5-a]pyrazin-1-yl)-N-[4-(trifluoromethyl)pyridin-2-yl]benzamide] | < 10
CCn1cc2c(n1)CCC[C@@H]2n1nc(-c2ccc(C(=O)Nc3cc(C(F)(F)F)ccn3)cc2)c2c(N)ncnc21 [Example 560, 4-{4-amino-1-[(4S)-2-ethyl-4,5,6,7-tetrahydro-2H-indazol-4-yl]-1H-pyrazolo[3,4-d]pyrimidin-3-yl}-N-[4-(trifluoromethyl)pyridin-2-yl]benzamide, TFA salt] | 10 to 100

Further lines, results first:

IC50 [nM] | SMILES
< 10 | Nc1nccn2c([C@@H]3CCCN(C(=O)[C@@H]4CC(F)(F)CN4)C3)nc(-c3ccc(C(=O)Nc4cc(C(F)(F)F)ccn4)cc3)c12 [Example 337, 4-{8-amino-3-[(3R)-1-(4,4-difluoro-L-prolyl)piperidin-3-yl]imidazo[1,5-a]pyrazin-1-yl}-N-[4-(trifluoromethyl)pyridin-2-yl]benzamide]
< 10 | C[C@H]1CC[C@@H](c2nc(-c3ccc(C(=O)Nc4cc(OCC(F)(F)F)ccn4)cc3)c3c(N)nccn23)CN1C(=O)C1(C)COC1 [Example 418, 4-(8-amino-3-{(3R,6S)-6-methyl-1-[(3-methyloxetan-3-yl)carbonyl]piperidin-3-yl}imidazo[1,5-a]pyrazin-1-yl)-N-[4-(2,2,2-trifluoroethoxy)pyridin-2-yl]benzamide]
< 10 | Nc1ncc(Cl)n2c([C@H]3CN(CCO)CCO3)nc(-c3ccc(C(=O)Nc4cc(C(F)(F)F)ccn4)cc3)c12 [Example 535, 4-{8-amino-5-chloro-3-[(2R)-4-(2-hydroxyethyl)morpholin-2-yl]imidazo[1,5-a]pyrazin-1-yl}-N-[4-(trifluoromethyl)pyridin-2-yl]benzamide, TFA salt]
< 10 | N#CCN1CCO[C@@H](c2nc(-c3ccc(C(=O)Nc4cc(C(F)(F)F)ccn4)cc3)c3c(N)ncc(Cl)n23)C1 [Example 533, 4-{8-amino-5-chloro-3-[(2R)-4-(cyanomethyl)morpholin-2-yl]imidazo[1,5-a]pyrazin-1-yl}-N-[4-(trifluoromethyl)pyridin-2-yl]benzamide]
< 10 | Nc1nccn2c([C@H]3CN(CCO)CCO3)nc(-c3ccc(C(=O)Nc4cc(C(F)(F)F)ccn4)cc3)c12 [Example 492, (R)-4-(8-amino-3-(4-(2-hydroxyethyl)morpholin-2-yl)imidazo[1,5-a]pyrazin-1-yl)-N-(4-(trifluoromethyl)pyridin-2-yl)benzamide]
< 10 | Cc1cnc(N)c2c(-c3ccc(C(=O)Nc4cc(OC5CC5)ccn4)cc3)nc([C@@H]3CCCN(C(=O)C4CC4)C3)n12 [Example 457, 4-{8-amino-3-[(3R)-1-(cyclopropylcarbonyl)piperidin-3-yl]-5-methylimidazo[1,5-a]pyrazin-1-yl}-N-[4-(cyclopropyloxy)pyridin-2-yl]benzamide]
< 10 | COCCN1CCO[C@@H](c2nc(-c3ccc(C(=O)Nc4cc(C(F)(F)F)ccn4)cc3)c3c(N)nccn23)C1 [Example 491, (R)-4-(8-amino-3-(4-(2-methoxyethyl)morpholin-2-yl)imidazo[1,5-a]pyrazin-1-yl)-N-(4-(trifluoromethyl)pyridin-2-yl)benzamide]
< 10 | Cc1noc(C)c1C(=O)N1CCC[C@@H](c2nc(-c3ccc(C(=O)Nc4cc(C(F)(F)F)ccn4)cc3)c3c(N)nccn23)C1 [Example 328]
< 10 | Nc1ncnc2c1c(-c1ccc(C(=O)Nc3cc(C(F)(F)F)ccn3)cc1)nn2[C@H]1CCCc2nn(CCO)cc21 [Example 564, 4-{4-amino-1-[(4S)-2-(2-hydroxyethyl)-4,5,6,7-tetrahydro-2H-indazol-4-yl]-1H-pyrazolo[3,4-d]pyrimidin-3-yl}-N-[4-(trifluoromethyl)pyridin-2-yl]benzamide, TFA salt]

Same assay, conditions: Table D; Assay Method C (LANCE TR-FRET), 50 pM hBTK, 25 μM ATP; read-out: IC50 BTK activity value

IC50 [nM] | SMILES
0.479 | C[C@H]1CC[C@@H](c2nc(-c3ccc(C(=O)Nc4cc(C(F)F)ccn4)cc3F)c3c(N)nccn23)CN1C(=O)C1CC1 [Example 436, 4-{8-amino-3-[(3R,6S)-1-(cyclopropylcarbonyl)-6-methylpiperidin-3-yl]imidazo[1,5-a]pyrazin-1-yl}-N-[4-(difluoromethyl)pyridin-2-yl]-3-fluorobenzamide]
